Test system: Nippostrongylus brasiliensis
Assay: In-vitro experiments with adult Nippostrongylus brasiliensis: acetylcholine esterase activity in the incubation medium
Format: cell-based
Parameters: key: 0=no activity (<50% enzyme inhibition); 1=weak activity; 2=good activity; 3=full activity
Procedure: Test Method for In-Vitro Experiments with Nippostrongylus brasiliensis
Adult Nippostrongylus brasiliensis were isolated from the small intestine of female Wistar rats and transferred into 0.9% NaCl containing 20 μg/ml sisomycin and 2 μg/ml Canesten. The groups of worms (both sexes) were incubated in 1.0 ml of medium, which was also used for determining the acetylcholine esterase activity. The incubation and the enzyme assay were described in the paper by Rapson et al. (1987) Z. Parasitenkunde 73, 190-191. […] The controls only contained DMSO. The acetylcholine esterase activity in the incubation medium was determined in accordance with the above publication.
The efficacy was categorized by means of a scale 0-3, where 0=no activity (<50% enzyme inhibition); 1=weak activity; 2=good activity; 3=full activity

For `COCC(=O)Nc1ccc(/N=C(\C)N(C)C)cc1` [Amidantel, amidantel], the “efficacy (scale 0-3, acetylcholine esterase inhibition)” value (Amidantel 10 ppm alone (PF1022A 0 ppm)) was 1, the “efficacy (scale 0-3, acetylcholine esterase inhibition)” value (Amidantel 50 ppm alone (PF1022A 0 ppm)) was 1 and the “efficacy (scale 0-3, acetylcholine esterase inhibition)” value (Amidantel 100 ppm alone (PF1022A 0 ppm)) was 1.

In the case of `C/C(=N\c1ccc(N)cc1)N(C)C` [Bay d 9216], the “efficacy (scale 0-3, acetylcholine esterase inhibition)” value (Bay d 9216 1 ppm alone (PF1022A 0 ppm)) is reported as 1, the “efficacy (scale 0-3, acetylcholine esterase inhibition)” value (Bay d 9216 5 ppm alone (PF1022A 0 ppm)) is reported as 1 and the “efficacy (scale 0-3, acetylcholine esterase inhibition)” value (Bay d 9216 10 ppm alone (PF1022A 0 ppm)) is reported as 1.

With `CC(C)CC1C(=O)OC(Cc2ccccc2)C(=O)N(C)C(CC(C)C)C(=O)OC(C)C(=O)N(C)C(CC(C)C)C(=O)OC(Cc2ccccc2)C(=O)N(C)C(CC(C)C)C(=O)OC(C)C(=O)N1C` (stereo not drawn) [PF1022A] the “efficacy (scale 0-3, acetylcholine esterase inhibition)” value (PF1022A 0.01 ppm alone (Amidantel 0 ppm)) was 1, the “efficacy (scale 0-3, acetylcholine esterase inhibition)” value (PF1022A 0.01 ppm alone (Bay d 9216 0 ppm)) was 1 and the “efficacy (scale 0-3, acetylcholine esterase inhibition)” value (PF1022A 0.05 ppm alone (Amidantel 0 ppm)) was 1. For the same molecule, the “efficacy (scale 0-3, acetylcholine esterase inhibition)” value (PF1022A 0.05 ppm alone (Bay d 9216 0 ppm)) was 1, the “efficacy (scale 0-3, acetylcholine esterase inhibition)” value (PF1022A 0.1 ppm alone (Amidantel 0 ppm)) was 2 and the “efficacy (scale 0-3, acetylcholine esterase inhibition)” value (PF1022A 0.1 ppm alone (Bay d 9216 0 ppm)) was 2.

— US20110201550A1, “COMBINATION OF AMIDINE DERIVATIVES WITH CYCLIC DEPSIPEPTIDES” (Bayer Animal Health GMBH, priority 2008, published 2011)
